Results on 2 compounds are retold here after patent US7029713B2, “Peptide extract of lupine and pharmaceutical or cosmetic or nutritional composition comprising the same” (Laboratoires Pharmascience, priority 1999, dated 2006).

Experiment [1] concerns purified collagenase (type III, fraction A). Put plainly: Anticollagenase activity in organotypic model of human skin sections (Masson trichrome, morphology and image analysis). The format is biochemical. To be noted: phosphoramidon 10^−3 M; collagenase 50 IU/ml, 3 hours 37° C. Details: key to Enzymatic digestion (morphological observation): 0: zero enzymatic digestion; +: weak enzymatic digestion; ++: average enzymatic digestion; +++: strong enzymatic digestion. As to the method: The anticollagenase activity of a test product can be studied in vitro in an organotypic model of human skin. The principle of the test is as follows: application of purified collagenase to sections is accompanied by degradation of the endogenous collagen fibers. The collagen fibers are then stained with Masson trichrome. The digestion of the endogenous collagen fibers by the purified collagenase is evaluated qualitatively by morphological observation and quantitatively by image analysis. A product which has anticollagenase activity will partially or totally preserve the integrity of the collagen fibers placed in the presence of the enzyme.
Three dilutions were tested: 0.01; 0.1 and 1% (v/v). […]
After incubation, the sections were rinsed with the incubation medium and stained with Masson trichrome. The activity of the enzyme in the presence and absence of the extract, of the ethanol or of the reference product was evaluated by microscopic observation and scored according to the following scheme:
The activity of the collagenase in the presence and absence of the test products, of the ethanol or of the reference product was evaluated by image analysis. […] The results were expressed as a percentage of intact collagen fibers per optical field. […]
For the reference product (directly taken up in the vehicle), the percentage inhibition is calculated using the following formula: […]

Experiment [2] concerns MMP-9 in human fibroblasts irradiated with UVA rays. Kind of experiment: Amount of MMP-9 secreted by UVA-irradiated human dermal fibroblasts (ELISA). The format is cell-based. The following applies: Fibroblast, light or radiation study, 80 μg/ml, read-out: inhibition of the secretion of MMP-9 by the irradiated fibroblasts. How it is done: (§1) The study was carried out on human dermal fibroblasts in monolayer culture. The cells were pre-incubated for 1 hour at 37° C. in the presence of the reference products and of the test product. Then, the cells were irradiated with a single dose of 10 J/cm^2 of UVA, in the presence of the product to be tested and of the reference products.
(§2) Immediately after irradiation, the cells were incubated for 48 h at 37° C., still in the presence of the product to be tested and of the reference products.
(§3) The various MMPs are tested in the culture media using specific ELISA kits (Amersham).
(§4) 1,10-Phenanthroline, which is a nonspecific inhibitor of MMPs, and was tested at 80 μg/ml, was used as a reference product.
(§5) A 10 μg/ml retinoic acid+10 ng/ml EGF mixture was used for its abilities to induce TIMP1 (TIMP1, Tissue Inhibitor of MMP, physiological inhibitor of MMPs).
(§6) A stock solution containing 10% (w/v) of lupin peptides was prepared in deionized water. Using this solution, dilutions were prepared in the fibroblast culture medium. The peptide extract of lupin was tested at 0.5; 1 and 2% (v/v).
(§7) Irradiated and nonirradiated control cultures were incubated in parallel, in the absence of the reference products and of the test product. […]
(§8) They are given in the table below and the results are expressed as % relative to the “irradiated cells” group.
On the technique in general: In an ELISA, binding on a coated surface is turned into a signal by an enzyme label.

A further experiment addresses T1, purified human MMP-2 (Homo sapiens, UniProt P08253).
T1 construct: purchased BOEHRINGER MANNHEIM; host or cells: purified from human fibrosarcoma (natural, not recombinant)
T1 sequence (P08253 110-660): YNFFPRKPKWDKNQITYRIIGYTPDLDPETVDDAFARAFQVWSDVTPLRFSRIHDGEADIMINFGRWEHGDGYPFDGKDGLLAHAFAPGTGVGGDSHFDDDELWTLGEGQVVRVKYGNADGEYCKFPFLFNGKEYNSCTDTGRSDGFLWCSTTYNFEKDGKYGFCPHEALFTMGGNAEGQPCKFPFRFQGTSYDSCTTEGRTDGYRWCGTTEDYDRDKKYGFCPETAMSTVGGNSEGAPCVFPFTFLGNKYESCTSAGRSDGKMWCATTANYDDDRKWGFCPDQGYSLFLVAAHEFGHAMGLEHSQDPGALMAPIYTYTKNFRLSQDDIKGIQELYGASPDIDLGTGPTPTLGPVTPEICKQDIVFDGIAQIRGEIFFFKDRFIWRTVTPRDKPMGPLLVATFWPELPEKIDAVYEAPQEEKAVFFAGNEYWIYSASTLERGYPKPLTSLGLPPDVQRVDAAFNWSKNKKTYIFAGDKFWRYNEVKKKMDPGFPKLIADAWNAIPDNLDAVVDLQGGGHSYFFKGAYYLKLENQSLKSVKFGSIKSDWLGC
Kind of experiment: Anti-MMP-2 activity, DQ-gelatin fluorimetry. Type of experiment: biochemical. As to the method:
(§9) The anti-MMP-2 and anti-MMP-9 activity of the test products was measured in vitro in a biochemical model of the screening type, based on the use of a purified human MMP-2 and of a recombinant human MMP-9 and of the substrate for the latter, gelatin conjugated to fluorescein (EnzChek™ gelatinase/collagenase kit, MOLECULAR PROBES).
The MMP-2 purified from human fibrosarcoma came from BOEHRINGER MANNHEIM.
(§10) The DQ-gelatin purified from porcine skin and conjugated to fluorescein was supplied in the EnzChek™ gelatinase/collagenase kit (MOLECULAR PROBES).
The reaction buffer for studying the activity of MMP-2 (RBf1) consisted of 50 mM of Tris-HCl, 0.05% (w/v) of Triton X100 and 5 mM of CaCl2, pH 7.5.
(§11) 1,10-Phenanthroline was solubilized in the reaction buffers RBf1 and RBf2. It was tested at 8 and 80 μg/ml.
(§12) Peptide extracts A, B and C were solubilized in the reaction buffers RBf1 and RBf2. They were tested at 0.01; 0.1 and 1% (w/v). […]
(§13) After 24 hours, the signal corresponding to the degradation of the DQ-gelatin was measured by fluorimetry (excitation: 485 nm and emission: 595 nm) For each sample, the value obtained for the “samples without enzyme” was subtracted.
(§14) The results were expressed as fluorescence units per sample and as percentage variation relative to the control group. […]

Experiment [3] concerns MMP-1 in human fibroblasts irradiated with UVA rays. Put plainly: Amount of MMP-1 secreted by UVA-irradiated human dermal fibroblasts (ELISA). Type of experiment: cell-based. The following applies: Fibroblast, light or radiation study, 80 μg/ml, read-out: inhibition of the secretion of MMP-1 by the irradiated fibroblasts. How it is done:
as §1, §2, §3, §4, §5, §6, §7, §8

In experiment [4] the test system is MMP-3 in human fibroblasts irradiated with UVA rays. Put plainly: Amount of MMP-3 secreted by UVA-irradiated human dermal fibroblasts (ELISA). The format is cell-based. The following applies: Fibroblast, light or radiation study, 80 μg/ml, read-out: inhibition of the secretion of MMP-3 by the irradiated fibroblasts. As to the method:
as §1, §2, §3, §4, §5, §6, §7, §8

In another experiment the target is T2, recombinant human MMP-9 (Homo sapiens, UniProt P14780).
T2 construct: purchased R&D SYSTEMS
Put plainly: Anti-MMP-9 activity, DQ-gelatin fluorimetry. Type of experiment: biochemical. How it is done: as §9
The recombinant human MMP-9 came from R&D SYSTEMS.
as §10
The reaction buffer for studying the activity of MMP-9 (RBf2) consisted of 50 mM of Tris-HCl, 0.05% (w/v) of Brij 35 and 5 mM of CaCl2, pH 7.4.
as §11, §12, §13, §14

T2 sequence (P14780 94-707): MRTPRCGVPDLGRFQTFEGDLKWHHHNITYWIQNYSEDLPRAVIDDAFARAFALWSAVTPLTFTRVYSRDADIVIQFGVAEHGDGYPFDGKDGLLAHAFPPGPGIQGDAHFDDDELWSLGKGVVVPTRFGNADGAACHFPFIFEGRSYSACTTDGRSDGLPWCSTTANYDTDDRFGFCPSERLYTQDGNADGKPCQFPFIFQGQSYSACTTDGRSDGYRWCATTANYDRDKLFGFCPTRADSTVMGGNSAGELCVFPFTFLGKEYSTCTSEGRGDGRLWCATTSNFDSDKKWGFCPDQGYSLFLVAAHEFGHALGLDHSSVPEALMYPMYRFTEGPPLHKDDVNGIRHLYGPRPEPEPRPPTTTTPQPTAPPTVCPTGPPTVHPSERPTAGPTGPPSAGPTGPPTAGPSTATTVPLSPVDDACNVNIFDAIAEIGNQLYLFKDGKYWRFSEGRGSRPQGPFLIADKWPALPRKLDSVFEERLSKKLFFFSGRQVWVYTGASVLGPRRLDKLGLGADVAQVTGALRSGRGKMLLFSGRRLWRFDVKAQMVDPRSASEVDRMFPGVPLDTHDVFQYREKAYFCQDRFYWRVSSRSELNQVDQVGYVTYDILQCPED

On to `CC(C)C[C@H](NP(=O)(O)O[C@@H]1O[C@@H](C)[C@H](O)[C@@H](O)[C@H]1O)C(=O)N[C@@H](Cc1c[nH]c2ccccc12)C(=O)O` [Phosphoramidon], for which, in experiment [1], the “% inhibition of the collagenase activity (image analysis)” value is reported as 16% and the “Enzymatic digestion (morphological observation)” value is on record as “+”.

Usually inhibition stands for the share of the control response that was lost under treatment. Turning to `c1cnc2c(c1)ccc1cccnc12` [1,10-phenanthroline], the inhibition at 80 µg/mL in experiment [2] amounted to 92%; against purified human MMP-2 (80 μg/ml), 73%; in experiment [3], 99%; in experiment [4] it was 97%; at recombinant human MMP-9 (80 μg/ml), 76%. Besides, the inhibition at 8 µg/mL stood at 32% at purified human MMP-2 (8 μg/ml) and 80% at recombinant human MMP-9 (8 μg/ml).
